This passage reports IC50 and inhibition results from patent US11725012B2, “Imidazo[1,5-a]pyrazine derivatives as PI3K δ inhibitors” (priority 2016, dated 2023).

Like-named read-outs stand apart in the source and are kept apart here.

The IC50 is the concentration needed to halve the response being measured. What is called inhibition is the change of the read-out against control, counted positive when it falls.

Holding throughout (format): biochemical
One assay addresses PI3K (p110β/p85α) (Homo sapiens, UniProt P42338). Nature of the assay: PI3Kβ ADP-Glo kinase assay. Background: In ADP-Glo the light output rises with the ADP produced.
Assay [1] deals with recombinant PI3K (p110δ/p85α) (Homo sapiens, UniProt O00329). In words: PI3Kδ ADP-Glo kinase assay. The protocol:
Compounds disclosed herein were tested for inhibition of PI3Kδ kinase activity using commercial ADP-Glo™ Kinase Assay (Promega Corporation) and following the manufacture's instruction. Briefly, recombinant PI3K (p110δ/p85α) enzyme, lipid kinase substrate and a serial dilution of compounds disclosed herein were incubated for 0.5 hr at room temperature. ATP was added to initiate the kinase reaction. After incubation for 1 hr at room temperature, ADP-Glo™ reagent was added to terminate the kinase reaction and deplete the remaining ATP. After incubation for 1 hr at room temperature, kinase detection reagent was added to simultaneously convert ADP to ATP and allow the newly synthesized ATP to be measured using a luciferase/luciferin reaction. After incubation for 0.5 hr at room temperature, the luminescence generated was measured on a PHERAstar FS plate reader (BMG LABTECH), The residual enzyme activity in presence of increasing concentrations of compounds was calculated based on the luminescence. The IC50 for each compound was derived from fitting the data to the four-parameter logistic equation by Graphpad Prism software.

The target in assay [2] is recombinant PI3K (p110α/p85α) (Homo sapiens, UniProt P42336). In words: PI3Kα ADP-Glo kinase assay.
Sequence of recombinant PI3K (p110α/p85α) (P42336 whole entry): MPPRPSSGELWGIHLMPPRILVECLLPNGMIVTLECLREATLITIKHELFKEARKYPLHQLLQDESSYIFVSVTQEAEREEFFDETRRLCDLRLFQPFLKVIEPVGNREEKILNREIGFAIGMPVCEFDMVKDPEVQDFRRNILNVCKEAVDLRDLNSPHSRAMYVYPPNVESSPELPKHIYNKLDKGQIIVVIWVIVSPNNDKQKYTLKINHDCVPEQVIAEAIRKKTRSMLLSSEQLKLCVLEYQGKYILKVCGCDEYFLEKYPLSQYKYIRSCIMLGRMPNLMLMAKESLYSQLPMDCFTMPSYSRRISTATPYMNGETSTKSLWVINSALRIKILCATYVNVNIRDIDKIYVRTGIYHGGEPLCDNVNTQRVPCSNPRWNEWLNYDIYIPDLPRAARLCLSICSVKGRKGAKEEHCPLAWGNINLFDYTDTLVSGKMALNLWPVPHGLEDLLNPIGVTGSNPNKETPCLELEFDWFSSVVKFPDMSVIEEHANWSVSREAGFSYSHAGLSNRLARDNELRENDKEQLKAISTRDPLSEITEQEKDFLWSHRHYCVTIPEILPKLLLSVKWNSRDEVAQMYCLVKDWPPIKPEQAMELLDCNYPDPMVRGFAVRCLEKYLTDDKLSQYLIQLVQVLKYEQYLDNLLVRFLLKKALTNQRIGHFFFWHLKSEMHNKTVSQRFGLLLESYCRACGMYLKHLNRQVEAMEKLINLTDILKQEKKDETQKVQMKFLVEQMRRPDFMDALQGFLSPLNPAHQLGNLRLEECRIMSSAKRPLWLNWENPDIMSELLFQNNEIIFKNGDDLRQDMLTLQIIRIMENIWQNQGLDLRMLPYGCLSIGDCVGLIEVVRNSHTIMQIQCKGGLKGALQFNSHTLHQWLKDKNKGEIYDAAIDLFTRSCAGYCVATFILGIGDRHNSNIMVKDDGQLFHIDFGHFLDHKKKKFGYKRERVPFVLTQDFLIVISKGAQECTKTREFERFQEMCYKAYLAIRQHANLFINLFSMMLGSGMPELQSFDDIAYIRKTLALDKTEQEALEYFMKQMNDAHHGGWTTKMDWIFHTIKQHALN
Sequence of recombinant PI3K (p110α/p85α) (P27986 whole entry partner): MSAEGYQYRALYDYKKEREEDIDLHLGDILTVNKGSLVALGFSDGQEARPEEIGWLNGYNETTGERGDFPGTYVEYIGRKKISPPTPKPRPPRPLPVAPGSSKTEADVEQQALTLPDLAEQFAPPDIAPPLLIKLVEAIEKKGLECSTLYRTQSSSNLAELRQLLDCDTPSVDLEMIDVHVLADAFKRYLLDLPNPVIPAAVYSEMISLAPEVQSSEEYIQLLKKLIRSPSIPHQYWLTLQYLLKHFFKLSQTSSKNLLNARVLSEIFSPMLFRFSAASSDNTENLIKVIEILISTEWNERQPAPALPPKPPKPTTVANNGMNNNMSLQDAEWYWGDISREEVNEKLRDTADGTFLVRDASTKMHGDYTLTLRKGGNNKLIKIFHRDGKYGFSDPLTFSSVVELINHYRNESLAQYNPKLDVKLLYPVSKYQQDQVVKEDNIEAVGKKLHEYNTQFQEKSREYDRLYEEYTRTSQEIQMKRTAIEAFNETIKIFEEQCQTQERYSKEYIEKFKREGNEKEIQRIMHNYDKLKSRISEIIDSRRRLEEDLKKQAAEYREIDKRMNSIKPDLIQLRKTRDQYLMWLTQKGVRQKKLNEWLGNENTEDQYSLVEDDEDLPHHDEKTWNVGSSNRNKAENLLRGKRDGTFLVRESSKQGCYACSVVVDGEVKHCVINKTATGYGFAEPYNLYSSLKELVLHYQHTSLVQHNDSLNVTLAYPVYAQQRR
The next assay deals with PI3K (p110γ) (Homo sapiens, UniProt P48736). In words: PI3Kγ ADP-Glo kinase assay.
Sequence of PI3K (p110γ) (P48736 whole entry): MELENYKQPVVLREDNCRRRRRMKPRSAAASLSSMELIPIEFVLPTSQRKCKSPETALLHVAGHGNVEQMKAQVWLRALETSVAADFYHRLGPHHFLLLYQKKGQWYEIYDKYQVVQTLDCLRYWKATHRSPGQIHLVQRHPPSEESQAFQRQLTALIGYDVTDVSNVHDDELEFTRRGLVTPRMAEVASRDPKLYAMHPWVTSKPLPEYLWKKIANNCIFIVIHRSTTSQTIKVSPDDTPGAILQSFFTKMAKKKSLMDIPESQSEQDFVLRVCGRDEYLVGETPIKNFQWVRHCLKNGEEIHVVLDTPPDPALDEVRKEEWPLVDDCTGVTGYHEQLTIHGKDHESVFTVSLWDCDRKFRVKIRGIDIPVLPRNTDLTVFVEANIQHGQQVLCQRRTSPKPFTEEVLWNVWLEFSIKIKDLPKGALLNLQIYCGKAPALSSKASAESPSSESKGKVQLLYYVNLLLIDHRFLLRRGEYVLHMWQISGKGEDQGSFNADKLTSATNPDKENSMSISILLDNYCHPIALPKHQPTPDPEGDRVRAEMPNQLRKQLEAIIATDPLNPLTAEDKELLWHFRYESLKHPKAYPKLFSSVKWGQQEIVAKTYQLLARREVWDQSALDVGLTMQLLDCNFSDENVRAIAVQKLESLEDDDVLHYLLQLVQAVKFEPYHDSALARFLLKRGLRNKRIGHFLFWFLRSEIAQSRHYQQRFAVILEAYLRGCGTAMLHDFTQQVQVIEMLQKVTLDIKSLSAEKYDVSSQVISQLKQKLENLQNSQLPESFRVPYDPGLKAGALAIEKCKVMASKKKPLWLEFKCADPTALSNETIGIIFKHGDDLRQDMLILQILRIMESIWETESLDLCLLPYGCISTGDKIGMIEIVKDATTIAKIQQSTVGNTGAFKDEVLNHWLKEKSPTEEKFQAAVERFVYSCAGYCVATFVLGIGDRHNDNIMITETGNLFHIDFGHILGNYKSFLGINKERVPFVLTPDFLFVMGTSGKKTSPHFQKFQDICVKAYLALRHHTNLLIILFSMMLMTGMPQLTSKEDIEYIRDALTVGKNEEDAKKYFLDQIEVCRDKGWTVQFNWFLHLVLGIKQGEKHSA
The mark [3] stands for this setting: read-out: PI3Kβ Enzyme activity IC50.
Setting [4] is: read-out: PI3Kδ Enzyme activity IC50.
Where [5] appears, read: read-out: PI3Kα Enzyme activity IC50.
Where [6] appears, read: read-out: PI3Kγ Enzyme activity IC50.

Sequence of recombinant PI3K (p110δ/p85α) (O00329 whole entry): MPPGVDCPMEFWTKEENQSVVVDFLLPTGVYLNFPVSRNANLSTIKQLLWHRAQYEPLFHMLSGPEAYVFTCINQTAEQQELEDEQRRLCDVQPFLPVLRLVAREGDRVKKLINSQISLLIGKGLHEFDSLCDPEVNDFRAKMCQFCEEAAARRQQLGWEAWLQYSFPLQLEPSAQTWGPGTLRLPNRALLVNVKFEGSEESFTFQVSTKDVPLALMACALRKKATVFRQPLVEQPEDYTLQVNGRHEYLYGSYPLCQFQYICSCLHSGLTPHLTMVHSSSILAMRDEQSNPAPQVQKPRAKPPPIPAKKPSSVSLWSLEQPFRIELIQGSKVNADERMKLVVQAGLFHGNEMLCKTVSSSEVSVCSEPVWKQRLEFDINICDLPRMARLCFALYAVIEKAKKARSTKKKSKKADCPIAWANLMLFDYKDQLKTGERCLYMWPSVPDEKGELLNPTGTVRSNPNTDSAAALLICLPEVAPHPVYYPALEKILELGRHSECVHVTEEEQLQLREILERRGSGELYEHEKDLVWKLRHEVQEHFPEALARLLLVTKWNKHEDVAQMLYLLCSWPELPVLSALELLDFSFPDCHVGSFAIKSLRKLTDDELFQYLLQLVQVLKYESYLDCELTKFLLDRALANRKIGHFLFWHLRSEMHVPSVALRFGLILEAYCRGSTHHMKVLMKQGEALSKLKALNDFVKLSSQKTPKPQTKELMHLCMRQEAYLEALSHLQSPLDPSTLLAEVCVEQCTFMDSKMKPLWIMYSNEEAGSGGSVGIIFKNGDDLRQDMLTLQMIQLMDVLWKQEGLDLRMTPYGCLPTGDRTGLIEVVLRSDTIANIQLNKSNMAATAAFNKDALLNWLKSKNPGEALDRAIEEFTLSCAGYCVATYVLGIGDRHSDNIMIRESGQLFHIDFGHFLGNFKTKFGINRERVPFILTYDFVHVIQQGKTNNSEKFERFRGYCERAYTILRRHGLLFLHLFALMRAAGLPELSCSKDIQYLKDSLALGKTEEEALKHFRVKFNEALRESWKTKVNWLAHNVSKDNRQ
Sequence of recombinant PI3K (p110δ/p85α) (P27986 whole entry partner): as the sequence (P27986 whole entry partner) above
Sequence of PI3K (p110β/p85α) (P42338 whole entry): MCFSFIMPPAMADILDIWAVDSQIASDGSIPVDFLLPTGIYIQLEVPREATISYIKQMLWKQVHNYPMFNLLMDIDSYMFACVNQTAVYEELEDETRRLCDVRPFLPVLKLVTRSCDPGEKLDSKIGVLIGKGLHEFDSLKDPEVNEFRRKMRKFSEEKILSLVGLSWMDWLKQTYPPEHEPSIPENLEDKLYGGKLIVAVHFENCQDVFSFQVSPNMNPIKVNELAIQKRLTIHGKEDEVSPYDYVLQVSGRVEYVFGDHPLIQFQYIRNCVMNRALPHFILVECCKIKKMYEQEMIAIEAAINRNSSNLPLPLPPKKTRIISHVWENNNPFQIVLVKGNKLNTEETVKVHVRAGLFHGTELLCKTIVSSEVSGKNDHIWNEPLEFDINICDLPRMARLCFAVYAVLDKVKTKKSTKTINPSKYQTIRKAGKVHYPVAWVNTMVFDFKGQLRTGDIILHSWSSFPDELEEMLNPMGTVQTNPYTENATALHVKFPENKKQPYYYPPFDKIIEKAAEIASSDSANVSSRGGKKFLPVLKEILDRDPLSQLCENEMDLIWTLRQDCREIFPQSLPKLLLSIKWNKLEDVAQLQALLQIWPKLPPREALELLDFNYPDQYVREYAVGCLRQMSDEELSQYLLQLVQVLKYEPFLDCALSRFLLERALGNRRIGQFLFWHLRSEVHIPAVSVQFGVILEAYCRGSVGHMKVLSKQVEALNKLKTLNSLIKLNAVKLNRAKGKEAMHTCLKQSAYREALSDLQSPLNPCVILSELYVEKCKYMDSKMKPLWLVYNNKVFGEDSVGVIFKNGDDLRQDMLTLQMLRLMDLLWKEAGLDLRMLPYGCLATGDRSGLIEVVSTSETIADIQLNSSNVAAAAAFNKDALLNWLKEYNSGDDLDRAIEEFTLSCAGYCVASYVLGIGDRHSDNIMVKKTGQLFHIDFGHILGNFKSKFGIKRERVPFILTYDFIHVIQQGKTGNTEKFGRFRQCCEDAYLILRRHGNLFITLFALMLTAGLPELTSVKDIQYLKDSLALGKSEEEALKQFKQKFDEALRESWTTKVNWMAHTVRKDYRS
Sequence of PI3K (p110β/p85α) (P27986 whole entry partner): as the sequence (P27986 whole entry partner) above

With `CCOc1c(C(C)c2nc(Cl)c3c(N)nccn23)cc(Cl)c(F)c1-c1ccc(C(F)(F)F)nc1` (centres unmarked) [Compound 41, 1-chloro-3-(1-(5-chloro-2-ethoxy-4-fluoro-3-(6-(trifluoromethyl)pyridin-3-yl)phenyl)ethyl)imidazo[1,5-a]pyrazin-8-amine], the concentration for half-maximal inhibition (IC50) at PI3K (p110β/p85α) (setting [3]) worked out at 3.1 µM; in assay [1] (setting [4]), 0.0032 µM; in assay [2] (setting [5]) it was 2.7 µM; at PI3K (p110γ) (setting [6]), 2.1 µM.
Consider `CCOc1c(C(C)c2nc(Cl)c3c(N)nccn23)cc(Cl)c(C)c1-c1ccc(Cl)nc1` (centres unmarked) [Compound 27, 1-chloro-3-(1-(5-chloro-3-(6-chloropyridin-3-yl)-2-ethoxy-4-methylphenyl)ethyl)imidazo[1,5-a]pyrazin-8-amine], for which the IC50 at PI3K (p110β/p85α) (setting [3]) worked out at 1.8 µM; in assay [1] (setting [4]) it was 0.0025 µM; in assay [2] (setting [5]) it was 3.3 µM; on PI3K (p110γ) (setting [6]), 1.4 µM.
`CCOc1c(C(C)c2nc(Cl)c3c(N)nccn23)cc(Cl)c(C)c1N1CCOCC1` (single isomer, unassigned) [Compound 51A, 1-chloro-3-(1-(5-chloro-2-ethoxy-4-methyl-3-morpholinophenyl)ethyl)imidazo[1,5-a]pyrazin-8-amine]: the IC50 on PI3K (p110β/p85α) (setting [3]) is 0.48 µM; in assay [1] (setting [4]), 0.00079 µM; in assay [2] (setting [5]), 2.1 µM; on PI3K (p110γ) (setting [6]), 1.2 µM.
The like results for `CCOc1c(C(C)c2nc(Cl)c3c(N)nccn23)cc(Cl)c(C)c1-c1ccc(C)nc1` (centres unmarked) [Compound 8, 1-chloro-3-(1-(5-chloro-2-ethoxy-4-methyl-3-(6-methylpyridin-3-yl)phenyl)ethyl) imidazo[1,5-a]pyrazin-8-amine] were, in that order, 0.35 µM, 0.0011 µM, 1.4 µM and 0.26 µM.
The like results for `CCOc1c(C(C)c2nc(Cl)c3c(N)nccn23)cc(Cl)c(Cl)c1-c1ccc(C(F)(F)F)nc1` (centres unmarked) [Compound 36, 1-chloro-3-(1-(4,5-dichloro-2-ethoxy-3-(6-(trifluoromethyl)pyridin-3-yl)phenyl)ethyl)imidazo[1,5-a]pyrazin-8-amine] were, in that order, 0.58 µM, 0.0022 µM, 1.3 µM and 0.73 µM.
The like results for `CC(C)Oc1c(C(C)c2nc(Cl)c3c(N)nccn23)cc(Cl)c(F)c1-c1ccc(C(=O)O)nc1` (centres unmarked) [Compound 18, 5-(3-(1-(8-amino-1-chloroimidazo[1,5-a]pyrazin-3-yl)ethyl)-5-chloro-6-fluoro-2-isopropoxyphenyl)picolinic Acid] were, in that order, 1.1 µM, 0.0013 µM, 7.1 µM and 0.34 µM.
As to `CC(C)Oc1c(C(C)c2nc(Cl)c3c(N)nccn23)cc(F)c(Cl)c1-c1ccc(C(F)(F)F)nc1` (centres unmarked) [Compound 35, 1-chloro-3-(1-(4-chloro-5-fluoro-2-isopropoxy-3-(6-(trifluoromethyl)pyridin-3-yl)phenyl)ethyl)imidazo[1,5-a]pyrazin-8-amine], the IC50 at PI3K (p110β/p85α) (setting [3]) was 79 µM; in assay [1] (setting [4]) it was 0.011 µM; in assay [2] (setting [5]), 23 µM; on PI3K (p110γ) (setting [6]) it was 5.9 µM.
The like results for `CCOc1c(C(C)c2nc(Br)c3c(N)nccn23)cc(Cl)c(C)c1-c1cncc(C(F)(F)F)c1` (centres unmarked) [Compound 39, 1-bromo-3-(1-(5-chloro-2-ethoxy-4-methyl-3-(5-(trifluoromethyl)pyridin-3-yl)phenyl)ethyl)imidazo[1,5-a]pyrazin-8-amine] were, in that order, 2 µM, 0.0057 µM, 3.2 µM and 1.6 µM.
For `COc1c(C(C)c2nc(Br)c3c(N)nccn23)cc(Cl)c(C)c1-c1ccc(N2CCOCC2)nc1` (centres unmarked) [Compound 23, 1-bromo-3-(1-(5-chloro-2-methoxy-4-methyl-3-(6-morpholinopyridin-3-yl)phenyl)ethyl)imidazo[1,5-a]pyrazin-8-amine], the figures for the inhibition at 0.5 µM (at PI3K (p110β/p85α) (read-out: PI3Kβ max inhibition (%) at 0.5 μM); in assay [2] (read-out: PI3Kα max inhibition (%) at 0.5 μM); on PI3K (p110γ) (read-out: PI3Kγ max inhibition (%) at 0.5 μM)) were 12%, 16% and -19%, respectively. For the same compound, the IC50 in assay [1] (setting [4]) is 0.015 µM.
On to `Cc1nc([C@@H](C)c2cc(Cl)c(F)c(-c3ccc(C(=O)NCCO)nc3)c2OC(C)C)n2ccnc(N)c12` [Compound 62, (S)-5-(3-(1-(8-amino-1-methylimidazo[1,5-a]pyrazin-3-yl)ethyl)-5-chloro-6-fluoro-2-isopropoxyphenyl)-N-(2-hydroxyethyl)picolinamide], for which the IC50 at PI3K (p110β/p85α) (setting [3]) is 3.6 µM; in assay [1] (setting [4]), 0.00082 µM; in assay [2] (setting [5]), 5.2 µM; at PI3K (p110γ) (setting [6]) it was 2.6 µM.
On to `CCOc1c(C(C)c2nc(Br)c3c(N)nccn23)cc(Cl)c(C)c1-c1ccc(OC)nc1` (stereo not drawn) [Compound 28, 1-bromo-3-(l-(5-chloro-2-ethoxy-3-(6-methoxypyridin-3-yl)-4-methylphenyl)ethyl)imidazo[1,5-a]pyrazin-8-amine], for which the half-maximal inhibitory concentration (IC50) came to 0.93 µM at PI3K (p110β/p85α) (PI3Kβ Enzyme activity IC50), 0.0032 µM in assay [1] (PI3Kδ Enzyme activity IC50), 2.3 µM in assay [2] (PI3Kα Enzyme activity IC50) and 0.74 µM against PI3K (p110γ) (PI3Kγ Enzyme activity IC50).
As to `CCCOc1c([C@H](C)c2nc(Cl)c3c(N)nccn23)cc(Cl)c(F)c1-c1ccc(C(F)(F)F)nc1` [Compound 42A], the IC50 on PI3K (p110β/p85α) (setting [3]) came to 2.2 µM; in assay [1] (setting [4]), 0.0041 µM; in assay [2] (setting [5]) it was 26 µM; at PI3K (p110γ) (setting [6]), 0.81 µM.
The like results for `COc1cc(C(C)n2cc(Br)c3c(N)ncnc32)n(-c2ccccc2)c(=O)c1C#N` (centres unmarked) [Compound 57, 6-(1-(4-amino-5-bromo-7H-pyrrolo[2,3-d]pyrimidin-7-yl)ethyl)-4-methoxy-2-oxo-1-phenyl-1,2-dihydropyridine-3-carbonitrile] were, in that order, 1.24 µM, 0.02 µM, 83 µM and 1.9 µM.
The like results for `COc1ccc(-c2c(C)c(Cl)cc(C(C)c3nc(Br)c4c(N)nccn34)c2OC)cn1` (centres unmarked) [Compound 20, 1-bromo-3-(1-(5-chloro-2-methoxy-3-(6-methoxypyridin-3-yl)-4-methylphenyl)ethyl)imidazo[1,5-a]pyrazin-8-amine] were, in that order, 0.93 µM, 0.0032 µM, 2.3 µM and 0.74 µM.
The like results for `CC(C)Oc1c(C(C)c2nc(Cl)c3c(N)nccn23)cc(Cl)c(F)c1-c1ccc(C(N)=O)nc1` (centres unmarked) [Compound 17, 5-(3-(1-(8-amino-1-chloroimidazo[1,5-a]pyrazin-3-yl)ethyl)-5-chloro-6-fluoro-2-isopropoxyphenyl)picolinamide] were, in that order, 1.6 µM, 0.0015 µM, 3.1 µM and 1.9 µM.
In the case of `CCOc1c(C(C)c2nc(-c3cccc(O)c3)c3c(N)nccn23)cc(Cl)c(C)c1-c1ccc(C(F)(F)F)nc1` (centres unmarked) [Compound 10, 3-(8-amino-3-(1-(5-chloro-2-ethoxy-4-methyl-3-(6-(trifluoromethyl)pyridin-3-yl)phenyl)ethyl)imidazo[1,5-a]pyrazin-1-yl)phenol], the 50% inhibitory concentration (IC50) on PI3K (p110β/p85α) (setting [3]) was found to be 2.7 µM; in assay [1] (setting [4]) it was 0.0091 µM; in assay [2] (setting [5]), 3.2 µM; on PI3K (p110γ) (setting [6]), 1.5 µM.
On the same counts, the results for `CCOc1c([C@H](C)c2nc(Cl)c3c(N)nccn23)cc(Cl)c(C)c1-c1ccc(C(=O)N(C)C)nc1` [Compound 11, (S)-5-(3-(1-(8-amino-1-chloroimidazo[1,5-a]pyrazin-3-yl)ethyl)-5-chloro-2-ethoxy-6-methylphenyl)-N,N-dimethylpicolinamide] are 0.36 µM, 0.00054 µM, 0.54 µM and 0.19 µM.
